How the values were obtained:
Aphis craccivora [1] = experiment: Insecticidal activity against Aphis craccivora (cowpea aphid) infested tender soybean shoots exposed to compound solution assessed as insect mortality measured 24 hr post compound treatment (reference value: 4.1%); assay type: functional
Aphis craccivora [2] = experiment: Insecticidal activity against Aphis craccivora (cowpea aphid) infested tender soybean shoots exposed to 500 mg/L compound solution assessed as insect mortality measured 24 hr post compound treatment (reference value: 4.1%); assay type: functional

Cc1ccc(C2N3CCN(Cc4ccc(Cl)nc4)C3=C([N+](=O)[O-])C(c3ccco3)C2(C#N)C#N)c(F)c1 (configuration not stated)
LC50 (Aphis craccivora [1]): 5.52 µM | mortality (Aphis craccivora [2]): 100%

N#CC1(C#N)C(c2ccco2)C([N+](=O)[O-])=C2N(Cc3ccc(Cl)nc3)CCN2C1c1cccc(F)c1F (configuration not stated)
mortality (Aphis craccivora [2]): 48.8%

N#CC1(C#N)C(c2ccco2)C([N+](=O)[O-])=C2N(Cc3ccc(Cl)nc3)CCN2C1c1ccc(OC(F)(F)F)c(Cl)c1 (configuration not stated)
mortality (Aphis craccivora [2]): 0%

N#CC1(C#N)C(c2ccco2)C([N+](=O)[O-])=C2N(Cc3ccc(Cl)nc3)CCN2C1c1ccc(C(F)(F)F)c(F)c1 (configuration not stated)
LC50 (Aphis craccivora [1]): 87.4 µM | mortality (Aphis craccivora [2]): 96.8%

N#CC1(C#N)C(c2ccco2)C([N+](=O)[O-])=C2N(Cc3ccc(Cl)nc3)CCN2C1c1ccc(F)cc1 (configuration not stated)
mortality (Aphis craccivora [2]): 64.21%

Cc1ccc(C2N3CCN(Cc4ccc(Cl)nc4)C3=C([N+](=O)[O-])C(c3ccco3)C2(C#N)C#N)cc1 (configuration not stated)
mortality (Aphis craccivora [2]): 0%

Cc1ccc(F)c(C2N3CCN(Cc4ccc(Cl)nc4)C3=C([N+](=O)[O-])C(c3ccco3)C2(C#N)C#N)c1 (configuration not stated)
mortality (Aphis craccivora [2]): 73.9%

N#CC1(C#N)C(c2ccco2)C([N+](=O)[O-])=C2N(Cc3ccc(Cl)nc3)CCN2C1c1ccc(Cl)cc1Cl (configuration not stated)
mortality (Aphis craccivora [2]): 85.9%

N#CC1(C#N)C(c2ccco2)C([N+](=O)[O-])=C2N(Cc3ccc(Cl)nc3)CCN2C1c1cccc(Br)c1 (configuration not stated)
mortality (Aphis craccivora [2]): 75.8%

N#CC1(C#N)C(c2ccco2)C([N+](=O)[O-])=C2N(Cc3ccc(Cl)nc3)CCN2C1c1ccc(Cl)cc1F (configuration not stated)
mortality (Aphis craccivora [2]): 56.7%

N#CC1(C#N)C(c2ccco2)C([N+](=O)[O-])=C2N(Cc3ccc(Cl)nc3)CCN2C1c1ccc(Br)cc1Cl (configuration not stated)
mortality (Aphis craccivora [2]): 0%

N#CC1(C#N)C(c2ccco2)C([N+](=O)[O-])=C2N(Cc3ccc(Cl)nc3)CCN2C1c1cccc([N+](=O)[O-])c1 (configuration not stated)
mortality (Aphis craccivora [2]): 0%

CN(C)c1ccc(C2N3CCN(Cc4ccc(Cl)nc4)C3=C([N+](=O)[O-])C(c3ccco3)C2(C#N)C#N)cc1 (configuration not stated)
mortality (Aphis craccivora [2]): 0%

N#Cc1cccc(C2N3CCN(Cc4ccc(Cl)nc4)C3=C([N+](=O)[O-])C(c3ccco3)C2(C#N)C#N)c1 (configuration not stated)
mortality (Aphis craccivora [2]): 0%

Cc1ccc(F)cc1C1N2CCN(Cc3ccc(Cl)nc3)C2=C([N+](=O)[O-])C(c2ccco2)C1(C#N)C#N (configuration not stated)
mortality (Aphis craccivora [2]): 0%

N#CC1(C#N)C(c2ccco2)C([N+](=O)[O-])=C2N(Cc3ccc(Cl)nc3)CCN2C1c1cc(C(F)(F)F)ccc1F (configuration not stated)
LC50 (Aphis craccivora [1]): 113 µM | mortality (Aphis craccivora [2]): 100%

N#CC1(C#N)C(c2ccco2)C([N+](=O)[O-])=C2N(Cc3ccc(Cl)nc3)CCN2C1c1ccc(Cl)cc1C(F)(F)F (configuration not stated)
LC50 (Aphis craccivora [1]): 87.2 µM | mortality (Aphis craccivora [2]): 100%

N#CC1(C#N)C(c2ccco2)C([N+](=O)[O-])=C2N(Cc3ccc(Cl)nc3)CCN2C1c1ccc([N+](=O)[O-])cc1 (configuration not stated)
mortality (Aphis craccivora [2]): 0%

N#CC1(C#N)C(c2ccco2)C([N+](=O)[O-])=C2N(Cc3ccc(Cl)nc3)CCN2C1c1ccc(OC(F)(F)F)cc1 (configuration not stated)
mortality (Aphis craccivora [2]): 0%

N#Cc1ccc(C2N3CCN(Cc4ccc(Cl)nc4)C3=C([N+](=O)[O-])C(c3ccco3)C2(C#N)C#N)cc1 (configuration not stated)
mortality (Aphis craccivora [2]): 0%

COc1ccc(C2N3CCN(Cc4ccc(Cl)nc4)C3=C([N+](=O)[O-])C(c3ccco3)C2(C#N)C#N)cc1 (configuration not stated)
mortality (Aphis craccivora [2]): 0%

N#CC1(C#N)C(c2ccco2)C([N+](=O)[O-])=C2N(Cc3ccc(Cl)nc3)CCN2C1c1ccccc1 (configuration not stated)
mortality (Aphis craccivora [2]): 0%

O=[N+]([O-])/N=C1\NCCN1Cc1ccc(Cl)nc1 [IMIDACLOPRID]
LC50 (Aphis craccivora [1]): 35 µM

— ChEMBL document CHEMBL3045280, “Designing Tetrahydroimidazo[1,2-a]pyridine derivatives via catalyst-free Aza-Diels-Alder reaction (ADAR) and their insecticidal evaluation” (2010)
